From PubChem BioAssay (NCI)
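GI50: concentration for 50% inhibition of growth. The concentration for full growth arrest is given as TGI.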

Assays:
Assay in all cases: NCI anticancer screen, dose series, 384-well format
786-0 renal = tested on: 786-0 renal
A498 renal = tested on: A498 renal
HS 578T breast = tested on: HS 578T breast
IGROV1 ovarian = tested on: IGROV1 ovarian
LOX IMVI melanoma = tested on: LOX IMVI melanoma
NCI-H226 lung = tested on: NCI-H226 lung
NCI-H23 lung = tested on: NCI-H23 lung
NCI/ADR-RES ovarian = tested on: NCI/ADR-RES ovarian
RPMI-8226 leukemia = tested on: RPMI-8226 leukemia
SK-MEL-2 melanoma = tested on: SK-MEL-2 melanoma
SK-OV-3 ovarian = tested on: SK-OV-3 ovarian
TK-10 renal = tested on: TK-10 renal
UACC-62 melanoma = tested on: UACC-62 melanoma

Row | SMILES | GI50 (786-0 renal) | TGI (786-0 renal) | GI50 (A498 renal) | TGI (A498 renal) | GI50 (HS 578T breast) | TGI (HS 578T breast) | GI50 (IGROV1 ovarian) | TGI (IGROV1 ovarian) | GI50 (LOX IMVI melanoma) | TGI (LOX IMVI melanoma) | GI50 (NCI-H226 lung) | TGI (NCI-H226 lung) | GI50 (NCI-H23 lung) | TGI (NCI-H23 lung) | GI50 (NCI/ADR-RES ovarian) | TGI (NCI/ADR-RES ovarian) | GI50 (RPMI-8226 leukemia) | TGI (RPMI-8226 leukemia) | GI50 (SK-MEL-2 melanoma) | TGI (SK-MEL-2 melanoma) | other results
1 | CC1(N)CCN(c2cnc(-c3cccc(Cl)c3Cl)c(N)n2)CC1 | 11.1 µM | 24 µM | 4.27 µM | 19.7 µM | 13.4 µM | 27.2 µM | 8.4 µM | 27 µM | 17.1 µM | 31 µM | 8.68 µM | 46.6 µM | 3.66 µM | 23.4 µM | 17.9 µM | > 71.1 µM | 13.9 µM | 28.9 µM | 13.7 µM | 26.6 µM | GI50 (SK-OV-3 ovarian): 10.2 µM; TGI (SK-OV-3 ovarian): 24.9 µM; GI50 (TK-10 renal): 8.25 µM; TGI (TK-10 renal): 25 µM; GI50 (UACC-62 melanoma): 18.7 µM; TGI (UACC-62 melanoma): 32.9 µM
2 | NS(=O)(=O)NCCNc1nonc1C(=Nc1ccc(F)c(Br)c1)NO | 35.1 µM | > 100 µM | 4.27 µM | > 80.2 µM | 25.3 µM | 87.4 µM | 37.4 µM | > 100 µM | 34.5 µM | > 100 µM | 20.8 µM | > 84.4 µM | 27.1 µM | > 100 µM | > 100 µM | > 100 µM | 17.6 µM | 35.2 µM | 20.1 µM | 47.1 µM | GI50 (SK-OV-3 ovarian): 10.9 µM; TGI (SK-OV-3 ovarian): > 100 µM; GI50 (TK-10 renal): 28.8 µM; TGI (TK-10 renal): > 89.2 µM; GI50 (UACC-62 melanoma): 24.5 µM; TGI (UACC-62 melanoma): > 100 µM
